Results as given in patent US20250206779A1, “ANGIOTENSIN-(1-9) ANALOGUE BASED ON D AMINO ACIDS, PHARMACEUTICAL COMPOSITIONS AND USES THEREOF” (UNIVERSIDAD DE CHILE, priority 2021, published 2025).
Where a SMILES comes first, the peptide text is derived from it. [ ]: non-standard residue; d: D form.

Columns and labels:
[1] = tested on: spontaneously hypertensive rats (SHR); test: Cardiac fibrosis in SHR, picrosirius red staining; type: in vivo, rat; settings: SHR, 1,200 ng/kg/min, 14 days
Description: Experimental animal model. All procedures were performed in accordance with the Guide for the Care and Use of Laboratory Animals published by the U.S. National Institutes of Health (NIH Publication 85 23, 1985) and approved by our Institutional Bioethics Committee. The animals were housed under the continuous professional monitoring of the Medical Veterinary staff in the animal facility of the Pontificia Universidad Católica de Chile, under the following conditions: 12-h light-dark cycle; 21° C. ambient temperature; 50% humidity; adequate ventilation; noise-free environment; and food and water ad libitum. Male spontaneously hypertensive rats (SHR, age 12 weeks) and normotensive Wistar Kyoto rats (WKY, 12 weeks age) were used. […] Systolic blood pressure (SBP), diastolic blood pressure (DBP) and body weight (BW) were measured at the end of the treatment period and the animals were then sacrificed.
Evaluation of cardiac fibrosis. […] In hypertense SHR increased picrosirius red staining was detected in the hearts, indicating the presence of interstitial collagen, a marker of cardiac fibrosis.

[2] = tested on: isolated hearts from adult male Sprague-Dawley rats; test: Infarct size in isolated hearts subjected to ischemia/reperfusion (Langendorff, TTC staining); parameters: species or system rat; settings: 50 nM peptide in reperfusion, 30 min global ischemia, ex vivo
Description: The cardioprotective effects of retro-inverse angiotensin-(1-9) were also investigated in isolated hearts from adult male Sprague-Dawley rats (250-300 g) subjected to ischemia/reperfusion (I/R) using a Langendorff procedure. Rats were anesthetized with pentobarbital [80 mg/kg intraperitoneally (i.p.)] and heparin 100 U/kg was injected into the right atria. Hearts were rapidly harvested and perfused through the aorta with Krebs-Henseleit solution containing NaCl 128.3 mM, KCl 4.7 mM, CaCl2 1.35 mM, MgSO4 1.1 mM, NaHCO3 20.2 mM, NaH2PO4 0.4 mM and glucose 11.1 mM, pH 7.4 (equilibrated with a gas mixture of 95% O2 and 5% CO2 at 37° C.), using a peristaltic pump (Gilson Miniplus 3, France). A latex balloon connected to a pressure transducer was placed through the left atrium and mitral valve into the left ventricle. The balloon was filled with saline to determine isovolumetric intraventricular pressure. Perfusion flow was 10-14 mL/min. Hearts were placed in a heated chamber and paced at 240-300 beats/min with platinum electrodes, using a Grass stimulator (pulses of 5V, 1 ms). […] The infarct size was determined using 2,3,5-triphenyltetrazolium chloride (TTC) staining. […]

SMILES: CC[C@@H](C)[C@@H](NC(=O)[C@@H](Cc1c[nH]cn1)NC(=O)[C@H]1CCCN1C(=O)[C@@H](Cc1ccccc1)NC(=O)[C@H](N)Cc1c[nH]cn1)C(=O)N[C@H](Cc1ccc(O)cc1)C(=O)N[C@@H](C(=O)N[C@H](CCCNC(=N)N)C(=O)N[C@H](CC(=O)O)C(=O)O)C(C)C [retro-inverse angiotensin-(1-9), NH2-^DH^DF^DP^DH^DI^DY^DV^DR^DD-COOH] (H-[dH][dF][dP][dH][dI][dY][dV][dR][dD]-OH)
- accumulation of collagen in cardiac tissue [1]: completely revert
- decrease of infarct size [2]: around 70%
